Tested on: Alloxan diabetic mice
Experiment: Efficacy in Alloxan diabetes model mice
Type: in vivo
Conditions: for HbA1c: 32nd day; for Concentration of blood glucose 1 h: 1 h after administration; for Concentration of blood glucose 2 h: 2 h after administration; for Concentration of blood glucose 4 h: 4 h after administration; for Concentration of blood glucose 8 h: 8 h after administration; for Concentration of blood glucose 24 h: 24 h after administration; for Concentration of blood glucose 0 h: before administration; for Concentration of blood glucose (random): random blood glucose on the 28th day
Method: Test Example 3 Research on efficacy of the compounds of the present invention in in vivo anti-Alloxan diabetes model mice
Alloxan diabetes mice were used. Normal ICR mice (male, 22-24 g) were randomly divided into groups including normal group, model group (con), positive control group and test compound groups with four different doses (n=11), and the mice without injection of Alloxan were in a normal control group (n=10).
Mice were administered with drugs by gavage.
Single administration: Mice were fasted for 3 h, and then the fasting blood (0 min) was collected. Then the mice in each group were administered with drugs by gavage. After 1 h, they were administered with a glucose ([…]) solution. Blood was collected at 30 min, 60 min, 120 min, and 180 min after the glucose administration. The blood glucose level was measured using glucose oxidase-peroxidase method, and the area under the blood glucose curve was calculated.
On the 6th day of continuous administration, under the condition of no fasting, blood samples were collected from mice before administration (0 h), 1 h, 2 h, 4 h, 8 h and 24 h after administration to measure blood glucose.
On the 9th day of continuous administration, the mice were fasted for 1 h and then administered with drugs by gavage. An oral glucose tolerance test (OGTT) was performed 1 h after administration.
On the 16th day of continuous administration, under the condition of no fasting, urine samples were collected from mice 1 h after administration to measure the concentration of urine glucose.
On the 22nd day of continuous administration, the mice were fasted for 1 h and then administered with drugs by gavage, and blood samples were collected to measure the fasting blood glucose 1 h after administration.
On the 28th day of continuous administration, under the condition of no fasting, blood samples were collected from mice 1 h after administration to measure the random blood glucose.
On the 32nd day of continuous administration, under the condition of no fasting, blood samples were collected from mice to measure glycosylated hemoglobin (HbA1c).
The data were expressed as mean±SEM (n=10-11). The comparison between multiple groups was performed by one-way analysis of variance, and the comparison between two groups was performed by Dunnett's t test. Statistical graphing was performed using Graphpad Prism software.

[1] = 0.25 mg/kg, OGTT on the 9th day
[2] = 0.25 mg/kg, non-fasting, 6th day
[3] = 0.5 mg/kg, non-fasting, 6th day
[4] = 1.0 mg/kg, non-fasting, 6th day

## CS[C@H]1O[C@@H](c2ccc(C)c(Cc3ccc4c(c3)OCCO4)c2)[C@H](O)[C@@H](O)[C@@H]1O (stereo in doubt) [Compound 2, 2-[3-(2,3-dihydro-1,4-benzodioxin-6-ylmethyl)-4-methylphenyl]-6-(methylthio)oxane-3,4,5-triol]
0.25 mg/kg
  Concentration of fasting blood glucose, the 9th day: 307.7 ± 23.1 mg/dL
  Concentration of fasting blood glucose, the 22nd day: 305.6 ± 16.5 mg/dL
  HbA1c: 7.2 ± 0.4%
  Concentration of blood glucose (random): 491.1 ± 26.5 mg/dL
[1]
  AUC of blood glucose: 541.5 ± 22.8 mg·h/dL
  Concentration of blood glucose 0 min: 307.7 ± 23.1 mg/dL
  Concentration of blood glucose 30 min: 303.0 ± 8.6 mg/dL
  Concentration of blood glucose 60 min: 268.5 ± 13.5 mg/dL
  Concentration of blood glucose 120 min: 223.4 ± 11.6 mg/dL
0.25 mg/kg, non-fasting, 6th day, 0-24 h
  AUC of blood glucose: 12051 ± 437.8 mg·h/dL
[2]
  Concentration of blood glucose 1 h: 458.4 ± 25.2 mg/dL
  Concentration of blood glucose 2 h: 430.7 ± 31.3 mg/dL
  Concentration of blood glucose 4 h: 404.3 ± 33.8 mg/dL
  Concentration of blood glucose 8 h: 478.2 ± 23.3 mg/dL
  Concentration of blood glucose 24 h: 585.3 ± 17.9 mg/dL
  Concentration of blood glucose 0 h: 540.1 ± 20.1 mg/dL
0.5 mg/kg
  Concentration of fasting blood glucose, the 9th day: 249.7 ± 14.7 mg/dL
  Concentration of fasting blood glucose, the 22nd day: 236.0 ± 13.7 mg/dL
  HbA1c: 6.1 ± 0.4 %
  Concentration of blood glucose (random): 437.9 ± 23.9 mg/dL
0.5 mg/kg, OGTT on the 9th day
  AUC of blood glucose: 468.3 ± 18.1 mg·h/dL
  Concentration of blood glucose 0 min: 249.7 ± 14.7 mg/dL
  Concentration of blood glucose 30 min: 290.3 ± 13.0 mg/dL
  Concentration of blood glucose 60 min: 231.0 ± 10.1 mg/dL
  Concentration of blood glucose 120 min: 175.0 ± 12.0 mg/dL
0.5 mg/kg, non-fasting, 6th day, 0-24 h
  AUC of blood glucose: 12059 ± 372.3 mg·h/dL
[3]
  Concentration of blood glucose 1 h: 488.6 ± 15.9 mg/dL
  Concentration of blood glucose 2 h: 474.7 ± 18.1 mg/dL
  Concentration of blood glucose 4 h: 386.0 ± 21.8 mg/dL
  Concentration of blood glucose 8 h: 473.9 ± 28.2 mg/dL
  Concentration of blood glucose 24 h: 585.6 ± 15.0 mg/dL
  Concentration of blood glucose 0 h: 551.9 ± 18.2 mg/dL
1.0 mg/kg
  Concentration of fasting blood glucose, the 9th day: 201.2 ± 11.4 mg/dL
  Concentration of fasting blood glucose, the 22nd day: 224.4 ± 17.6 mg/dL
  HbA1c: 5.9 ± 0.6 %
  Concentration of blood glucose (random): 395.8 ± 24.1 mg/dL
1.0 mg/kg, OGTT on the 9th day
  AUC of blood glucose: 410.6 ± 15.6 mg·h/dL
  Concentration of blood glucose 0 min: 201.2 ± 11.4 mg/dL
  Concentration of blood glucose 30 min: 253.9 ± 7.7 mg/dL
  Concentration of blood glucose 60 min: 205.3 ± 9.8 mg/dL
  Concentration of blood glucose 120 min: 158.6 ± 8.8 mg/dL
1.0 mg/kg, non-fasting, 6th day, 0-24 h
  AUC of blood glucose: 10310 ± 308.4 mg·h/dL
[4]
  Concentration of blood glucose 1 h: 417.1 ± 14.8 mg/dL
  Concentration of blood glucose 2 h: 409.8 ± 16.7 mg/dL
  Concentration of blood glucose 4 h: 323.8 ± 16.1 mg/dL
  Concentration of blood glucose 8 h: 368.3 ± 19.4 mg/dL
  Concentration of blood glucose 24 h: 550.3 ± 17.0 mg/dL
  Concentration of blood glucose 0 h: 444.1 ± 19.2 mg/dL
2.0 mg/kg
  Concentration of fasting blood glucose, the 9th day: 184.9 ± 18.3 mg/dL
  Concentration of fasting blood glucose, the 22nd day: 211.9 ± 17.8 mg/dL
  HbA1c: 6.0 ± 0.4 %
2.0 mg/kg, OGTT on the 9th day
  AUC of blood glucose: 393.9 ± 25.6 mg·h/dL
  Concentration of blood glucose 0 min: 184.9 ± 18.3 mg/dL
  Concentration of blood glucose 30 min: 246.0 ± 11.7 mg/dL
  Concentration of blood glucose 60 min: 205.1 ± 12.6 mg/dL
  Concentration of blood glucose 120 min: 141.7 ± 14.6 mg/dL
